Source: the NIST ThermoML archive (doi:10.1021/je400459y)

Experiment: mn = molality of the nth substance listed, in mol/kg
Conditions: Liquid

[Cl-].[Na+] [sodium chloride] + O
Conditions | mass density [kg/m3]
332.77 K, 16012 kPa, m1 = 1 | 1028.34
332.83 K, 10001 kPa, m1 = 1 | 1025.96
332.88 K, 12003 kPa, m1 = 1 | 1026.78
332.96 K, 18010 kPa, m1 = 1 | 1029.12
333.11 K, 14007 kPa, m1 = 1 | 1027.52
333.13 K, 10014 kPa, m1 = 2 | 1060.45
333.13 K, 12007 kPa, m1 = 3 | 1090.92
333.13 K, 14002 kPa, m1 = 3 | 1091.64
333.16 K, 18002 kPa, m1 = 3 | 1093.07
333.17 K, 15999 kPa, m1 = 2 | 1062.63
333.18 K, 18011 kPa, m1 = 2 | 1063.39
333.19 K, 10002 kPa, m1 = 3 | 1089.97
333.19 K, 12008 kPa, m1 = 2 | 1061.17
333.2 K, 14003 kPa, m1 = 2 | 1061.9
333.21 K, 16006 kPa, m1 = 3 | 1092.36
333.52 K, 15999 kPa, m1 = 4 | 1123.12
333.54 K, 12004 kPa, m1 = 4 | 1121.22
333.55 K, 18008 kPa, m1 = 4 | 1124.3
333.56 K, 14008 kPa, m1 = 4 | 1122.36
333.59 K, 10007 kPa, m1 = 4 | 1120.38
352.11 K, 10000 kPa, m1 = 4 | 1109.5
352.14 K, 18001 kPa, m1 = 4 | 1112.67
352.16 K, 12008 kPa, m1 = 4 | 1109.8
352.17 K, 14050 kPa, m1 = 4 | 1111.1
352.19 K, 16005 kPa, m1 = 4 | 1111.53
352.65 K, 12002 kPa, m1 = 1 | 1015.47
353.13 K, 18026 kPa, m1 = 2 | 1052.55
353.14 K, 12005 kPa, m1 = 2 | 1050.19
353.16 K, 14002 kPa, m1 = 3 | 1079.82
353.16 K, 14003 kPa, m1 = 2 | 1050.95
353.19 K, 16007 kPa, m1 = 2 | 1051.71
353.2 K, 9995 kPa, m1 = 1 | 1014.63
353.2 K, 13999 kPa, m1 = 1 | 1016.06
353.23 K, 9996 kPa, m1 = 2 | 1049.38
353.23 K, 10007 kPa, m1 = 3 | 1078.28
353.23 K, 16008 kPa, m1 = 3 | 1080.53
353.27 K, 12003 kPa, m1 = 3 | 1079.02
353.28 K, 17998 kPa, m1 = 1 | 1017.65
353.28 K, 18002 kPa, m1 = 3 | 1081.24
372.7 K, 18017 kPa, m1 = 4 | 1100.7
372.71 K, 14005 kPa, m1 = 4 | 1099
372.72 K, 10019 kPa, m1 = 4 | 1097.2
372.75 K, 16043 kPa, m1 = 4 | 1100.12
372.76 K, 12007 kPa, m1 = 4 | 1098.5
372.96 K, 16007 kPa, m1 = 1 | 1003.93
373 K, 18001 kPa, m1 = 1 | 1004.74
373.03 K, 12005 kPa, m1 = 1 | 1002.25
373.03 K, 14001 kPa, m1 = 1 | 1003.21
373.1 K, 11999 kPa, m1 = 2 | 1038.08
373.11 K, 10005 kPa, m1 = 3 | 1066.26
373.11 K, 17997 kPa, m1 = 3 | 1069.36
373.16 K, 10001 kPa, m1 = 1 | 1001.31
373.16 K, 14004 kPa, m1 = 3 | 1067.77
373.17 K, 12008 kPa, m1 = 3 | 1067.01
373.2 K, 14002 kPa, m1 = 2 | 1038.84
373.22 K, 16005 kPa, m1 = 3 | 1068.52
392.6 K, 10002 kPa, m1 = 1 | 986.9
392.65 K, 12008 kPa, m1 = 1 | 987.5
392.65 K, 14005 kPa, m1 = 1 | 988.82
392.65 K, 16001 kPa, m1 = 1 | 989.54
392.65 K, 18001 kPa, m1 = 1 | 990.45
392.77 K, 14002 kPa, m1 = 4 | 1088.52
392.78 K, 15999 kPa, m1 = 4 | 1089.3
392.79 K, 10006 kPa, m1 = 4 | 1086.96
392.81 K, 12002 kPa, m1 = 4 | 1087.71
392.82 K, 18008 kPa, m1 = 4 | 1090.43
393.09 K, 14006 kPa, m1 = 3 | 1054.75
393.17 K, 10001 kPa, m1 = 3 | 1053.22
393.17 K, 16002 kPa, m1 = 3 | 1055.54
393.17 K, 18005 kPa, m1 = 2 | 1027.22
393.18 K, 10003 kPa, m1 = 2 | 1023.83
393.2 K, 11995 kPa, m1 = 2 | 1024.64
393.22 K, 13999 kPa, m1 = 2 | 1025.54
393.23 K, 16003 kPa, m1 = 2 | 1026.34
393.24 K, 12008 kPa, m1 = 3 | 1053.85
393.26 K, 17997 kPa, m1 = 3 | 1056.25
412.86 K, 10007 kPa, m1 = 4 | 1072.35
412.92 K, 12005 kPa, m1 = 4 | 1073.15
412.94 K, 14004 kPa, m1 = 4 | 1073.97
413.01 K, 16003 kPa, m1 = 4 | 1074.76
413.06 K, 18002 kPa, m1 = 4 | 1075.53
413.11 K, 17998 kPa, m1 = 2 | 1012.96
413.12 K, 14007 kPa, m1 = 2 | 1011.33
413.12 K, 16004 kPa, m1 = 1 | 973.21
413.14 K, 10008 kPa, m1 = 2 | 1009.53
413.14 K, 16003 kPa, m1 = 2 | 1012.21
413.14 K, 18004 kPa, m1 = 3 | 1041.53
413.15 K, 18001 kPa, m1 = 1 | 974.15
413.16 K, 10006 kPa, m1 = 1 | 970.45
413.17 K, 12009 kPa, m1 = 1 | 971.23
413.17 K, 16001 kPa, m1 = 3 | 1040.63
413.18 K, 12003 kPa, m1 = 2 | 1010.61
413.18 K, 13998 kPa, m1 = 1 | 972.24
413.2 K, 12005 kPa, m1 = 3 | 1038.72
413.23 K, 10007 kPa, m1 = 3 | 1038.23
